Values of other authors, collected in PubChem BioAssay AID1259409 (Chemical Carcinogenesis Research Information System (CCRIS), 2018).

Tested on: rodent chemically induced tumor inhibition, incidence and multiplicity
Assay: CCRIS tumor inhibitor studies
Settings: Promoter: NONE USED

SMILES: NCC(CC(=O)O)c1ccc(Cl)cc1 (stereo not drawn)
- tumour outcome (control, treated, inhibition, significance) (Carcinogen: N-METHYL-N'-NITRO-N-NITROSOGUANIDINE, 70-25-7, Dose [Inhibitor]: 0, 4 MG/KG IN NACL INJECTED 1/2 D FOR DURATION OF STUDY BEGINNING 1 WK POST CARCINOGEN DOSE (STUDY DURATION: 52 WK), Route [Inhibitor]: INTRAPERITONEAL, Species: RAT, Strain/Sex: WISTAR/MALE, Target Tissue: Type of Lesion: STOMACH: ADENOCARCINOMA, Dose [Carcinogen]: 50 UG/ML IN DRINKING WATER FOR 25 WK): 13/19 (68%), 5/20 (25%), 63%, not calculated
- tumour outcome (control, treated, inhibition, significance) (Carcinogen: N-METHYL-N'-NITRO-N-NITROSOGUANIDINE, 70-25-7, Dose [Inhibitor]: 0, 8 MG/KG BW 1/2 D FOR 25 WK BEGINNING POST CARCINOGEN TREATMENT (STUDY DURATION: 52 WK), Route [Inhibitor]: SUBCUTANEOUS, Species: RAT, Strain/Sex: WISTAR/MALE, Target Tissue: Type of Lesion: STOMACH: TUMOR, Dose [Carcinogen]: 50 UG/ML IN DRINKING WATER FOR 25 WK): 19/20 (95%), 10/20 (50%), 47%, p<0.001
- tumour outcome (control, treated, inhibition, significance) (Carcinogen: N-METHYL-N'-NITRO-N-NITROSOGUANIDINE, 70-25-7, Dose [Inhibitor]: 0, 8 MG/KG IN NACL INJECTED 1/2 D FOR DURATION OF STUDY BEGINNING 1 WK POST CARCINOGEN DOSE (STUDY DURATION: 52 WK), Route [Inhibitor]: INTRAPERITONEAL, Species: RAT, Strain/Sex: WISTAR/MALE, Target Tissue: Type of Lesion: STOMACH: ADENOCARCINOMA, Dose [Carcinogen]: 50 UG/ML IN DRINKING WATER FOR 25 WK): 13/19 (68%), 5/18 (28%), 59%, not calculated
- tumour outcome (control, treated, inhibition, significance) (Carcinogen: N-METHYL-N'-NITRO-N-NITROSOGUANIDINE, 70-25-7, Dose [Inhibitor]: 0, 8 MG/KG/BW SUSPENSION IN OLIVE OIL 1/2 D BEGINNING POST CARCINOGEN TREATMENT AND CONTINUING FOR DURATION OF STUDY (ST, Route [Inhibitor]: SUBCUTANEOUS, Species: RAT, Strain/Sex: WISTAR/MALE, Target Tissue: Type of Lesion: STOMACH: ADENOCARCINOMA, Dose [Carcinogen]: 50 UG/ML IN DRINKING WATER FOR 25 WK): 16/20 (80%), 8/20 (40%), 50%, p<0.05

SMILES: O.O.O.O.O.[Cd+2].[Cd+2].[Cl-].[Cl-].[Cl-].[Cl-]
- tumour outcome (control, treated, inhibition, significance) (Carcinogen: NITROSODIETHYLAMINE, 55-18-5, Dose [Inhibitor]: 0, 1000 PPM IN DRINKING WATER BEGINNING 2 WK POST CARCINOGEN DOSE AND CONTINUING FOR DURATION OF STUDY (STUDY DURATION:, Route [Inhibitor]: ORAL, Species: MOUSE, Strain/Sex: B6C3F1/MALE, Target Tissue: Type of Lesion: LIVER: TUMOR, Dose [Carcinogen]: 5 MG/ML IN TRICAPRYLIN ONCE AT 5 WK OF AGE): 22/25 (88%), 2/25 (8%), 91%, p<0.05
- tumour outcome (control, treated, inhibition, significance) (Carcinogen: NITROSODIETHYLAMINE, 55-18-5, Dose [Inhibitor]: 0, 1000 PPM IN DRINKING WATER BEGINNING 2 WK POST CARCINOGEN DOSE AND CONTINUING FOR DURATION OF STUDY (STUDY DURATION:, Route [Inhibitor]: ORAL, Species: MOUSE, Strain/Sex: B6C3F1/MALE, Target Tissue: Type of Lesion: LUNG: TUMOR, Dose [Carcinogen]: 5 MG/ML IN TRICAPRYLIN ONCE AT 5 WK OF AGE): 100%, 94%, 6%, not significant
- tumour outcome (control, treated, inhibition, significance) (Carcinogen: NITROSODIETHYLAMINE, 55-18-5, Dose [Inhibitor]: 0, 1000 PPM IN DRINKING WATER BEGINNING 4 WK POST CARCINOGEN DOSE AND CONTINUING FOR DURATION OF STUDY (STUDY DURATION:, Route [Inhibitor]: ORAL, Species: MOUSE, Strain/Sex: B6C3F1/MALE, Target Tissue: Type of Lesion: LIVER: TUMOR, Dose [Carcinogen]: 5 MG/ML IN TRICAPRYLIN ONCE AT 5 WK OF AGE): 22/25 (88%), 1/25 (4%), 95%, p<0.05
- tumour outcome (control, treated, inhibition, significance) (Carcinogen: NITROSODIETHYLAMINE, 55-18-5, Dose [Inhibitor]: 0, 1000 PPM IN DRINKING WATER BEGINNING 4 WK POST CARCINOGEN DOSE AND CONTINUING FOR DURATION OF STUDY (STUDY DURATION:, Route [Inhibitor]: ORAL, Species: MOUSE, Strain/Sex: B6C3F1/MALE, Target Tissue: Type of Lesion: LUNG: TUMOR, Dose [Carcinogen]: 5 MG/ML IN TRICAPRYLIN ONCE AT 5 WK OF AGE): 100%, 94%, 6%, not significant
- tumour outcome (control, treated, inhibition, significance) (Carcinogen: NITROSODIETHYLAMINE, 55-18-5, Dose [Inhibitor]: 0, 1000 PPM IN DRINKING WATER BEGINNING 8 WK POST CARCINOGEN DOSE AND CONTINUING FOR DURATION OF STUDY (STUDY DURATION:, Route [Inhibitor]: ORAL, Species: MOUSE, Strain/Sex: B6C3F1/MALE, Target Tissue: Type of Lesion: LIVER: TUMOR, Dose [Carcinogen]: 5 MG/ML IN TRICAPRYLIN ONCE AT 5 WK OF AGE): 22/25 (88%), 1/25 (4%), 95%, p<0.05
- tumour outcome (control, treated, inhibition, significance) (Carcinogen: NITROSODIETHYLAMINE, 55-18-5, Dose [Inhibitor]: 0, 1000 PPM IN DRINKING WATER BEGINNING 8 WK POST CARCINOGEN DOSE AND CONTINUING FOR DURATION OF STUDY (STUDY DURATION:, Route [Inhibitor]: ORAL, Species: MOUSE, Strain/Sex: B6C3F1/MALE, Target Tissue: Type of Lesion: LUNG: TUMOR, Dose [Carcinogen]: 5 MG/ML IN TRICAPRYLIN ONCE AT 5 WK OF AGE): 100%, 89%, 11%, not significant
- tumour outcome (control, treated, inhibition, significance) (Carcinogen: NITROSODIETHYLAMINE, 55-18-5, Dose [Inhibitor]: 0, 1000 PPM IN DRINKING WATER BEGINNING 16 WK POST CARCINOGEN DOSE AND CONTINUING FOR DURATION OF STUDY (STUDY DURATION:, Route [Inhibitor]: ORAL, Species: MOUSE, Strain/Sex: B6C3F1/MALE, Target Tissue: Type of Lesion: LIVER: TUMOR, Dose [Carcinogen]: 5 MG/ML IN TRICAPRYLIN ONCE AT 5 WK OF AGE): 22/25 (88%), 2/25 (8%), 91%, p<0.05
- tumour outcome (control, treated, inhibition, significance) (Carcinogen: NITROSODIETHYLAMINE, 55-18-5, Dose [Inhibitor]: 0, 1000 PPM IN DRINKING WATER BEGINNING 16 WK POST CARCINOGEN DOSE AND CONTINUING FOR DURATION OF STUDY (STUDY DURATION:, Route [Inhibitor]: ORAL, Species: MOUSE, Strain/Sex: B6C3F1/MALE, Target Tissue: Type of Lesion: LUNG: TUMOR, Dose [Carcinogen]: 5 MG/ML IN TRICAPRYLIN ONCE AT 5 WK OF AGE): 100%, 72%, 28%, p<0.05
- tumour outcome (control, treated, inhibition, significance) (Carcinogen: NITROSODIETHYLAMINE, 55-18-5, Dose [Inhibitor]: 0, 1000 PPM IN DRINKING WATER BEGINNING 32 WK POST CARCINOGEN DOSE AND CONTINUING FOR DURATION OF STUDY (STUDY DURATION:, Route [Inhibitor]: ORAL, Species: MOUSE, Strain/Sex: B6C3F1/MALE, Target Tissue: Type of Lesion: LIVER: TUMOR, Dose [Carcinogen]: 5 MG/ML IN TRICAPRYLIN ONCE AT 5 WK OF AGE): 22/25 (88%), 6/24 (25%), 72%, p<0.05
- tumour outcome (control, treated, inhibition, significance) (Carcinogen: NITROSODIETHYLAMINE, 55-18-5, Dose [Inhibitor]: 0, 1000 PPM IN DRINKING WATER BEGINNING 32 WK POST CARCINOGEN DOSE AND CONTINUING FOR DURATION OF STUDY (STUDY DURATION:, Route [Inhibitor]: ORAL, Species: MOUSE, Strain/Sex: B6C3F1/MALE, Target Tissue: Type of Lesion: LUNG: TUMOR, Dose [Carcinogen]: 5 MG/ML IN TRICAPRYLIN ONCE AT 5 WK OF AGE): 100%, 96%, 4%, not significant

SMILES: CC(=O)Nc1ccc(O)cc1
- tumour outcome (control, treated, inhibition, significance) (Carcinogen: 4-(METHYLNITROSAMINO)-1-(3-PYRIDYL)-1-BUTANONE, 64091-91-4, Dose [Inhibitor]: 0, 1520 MMOL/KG BW/D IN DIET FOR DURATION OF STUDY BEGINNING 2 WK PRIOR TO CARCINOGEN TREATMENT (STUDY DURATION: 25 WK), Route [Inhibitor]: ORAL, Species: MOUSE, Strain/Sex: STRAIN-A/FEMALE, Target Tissue: Type of Lesion: LUNG:TUMOR, Dose [Carcinogen]: 2.2 MMOL/KG BW (TOTAL DOSE) ADMINISTERED IN DRINKING WATER FOR 7 WK): 29/29 (100%), 25/25 (100%), 0%, not significant
- outcome (Carcinogen: N-ETHYL-N-HYDROXYETHYLNITROSAMINE, 13147-25-6, Dose [Inhibitor]: 1.3% IN DIET BEGINNING 1 WK AFTER LAST CARCINOGEN TREATMENT AND CONTINUING THROUGH DURATION OF STUDY (STUDY DURATION: 32, Route [Inhibitor]: ORAL, Species: RAT, Strain/Sex: F344/MALE, Target Tissue: Type of Lesion: KIDNEY: ADENOCARCINOMA, Dose [Carcinogen]: 0.1% IN DRINKING WATER FOR 2 WK AT BEGINNING OF STUDY): 0/23 (0%), 1/23 (4%), not significant
- tumour outcome (control, treated, inhibition, significance) (Carcinogen: N-ETHYL-N-HYDROXYETHYLNITROSAMINE, 13147-25-6, Dose [Inhibitor]: 1.3% IN DIET BEGINNING 1 WK AFTER LAST CARCINOGEN TREATMENT AND CONTINUING THROUGH DURATION OF STUDY (STUDY DURATION: 32, Route [Inhibitor]: ORAL, Species: RAT, Strain/Sex: F344/MALE, Target Tissue: Type of Lesion: KIDNEY: ADENOMA, Dose [Carcinogen]: 0.1% IN DRINKING WATER FOR 2 WK AT BEGINNING OF STUDY): 5/23 (22%), 15/27 (56%), -154%, p<0.01
- tumour outcome (control, treated, inhibition, significance) (Carcinogen: N-ETHYL-N-HYDROXYETHYLNITROSAMINE, 13147-25-6, Dose [Inhibitor]: 1.3% IN DIET BEGINNING 1 WK AFTER LAST CARCINOGEN TREATMENT AND CONTINUING THROUGH DURATION OF STUDY (STUDY DURATION: 32, Route [Inhibitor]: ORAL, Species: RAT, Strain/Sex: F344/MALE, Target Tissue: Type of Lesion: LIVER: HEPATOCELLULAR CARCINOMA, Dose [Carcinogen]: 0.1% IN DRINKING WATER FOR 2 WK AT BEGINNING OF STUDY): 11/23 (48%), 3/27 (11%), 77%, p<0.05
